Data on one cell line can be found in the supplement of paper PMC10307832.

Holding throughout (assay): relative viability (nuclei count vs DMSO), 5 days (fraction); higher = more cells survive
Compound in assay [1]: Cc1ccc(C(=O)Nc2ccc(CN3CCN(C)CC3)c(C(F)(F)F)c2)cc1C#Cc1cnc2cccnn12 [Ponatinib] + CS(=O)(=O)CCNCc1ccc(-c2ccc3ncnc(Nc4ccc(OCc5cccc(F)c5)c(Cl)c4)c3c2)o1 [Lapatinib] (partner 2 µM)
Put shortly:
(§1)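 Lung cancer cell lines were pin-tool dosed in 1536-well plates on the day after seeding, with either a lone drug or a fixed anchor-drug dose plus five library-drug doses (not always all listed) in √10 steps. Nuclei were counted on 4× images after 5 days. Relative viability is the ratio of treated-well to vehicle-well nuclei counts, with each value a median of duplicate plates.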

Compound in assay [2]: Cc1ccc(Nc2nccc(N(C)c3ccc4c(C)n(C)nc4c3)n2)cc1S(N)(=O)=O [Pazopanib] + CC(=O)Nc1cccc(-n2c(=O)n(C3CC3)c(=O)c3c(Nc4ccc(I)cc4F)n(C)c(=O)c(C)c32)c1 [Trametinib] (partner 0.02 µM)
A digest of the protocol:
as §1

Compound in assay [3]: Cc1ccc(Nc2nccc(N(C)c3ccc4c(C)n(C)nc4c3)n2)cc1S(N)(=O)=O [Pazopanib] + CC1(C)CCC(c2ccc(Cl)cc2)=C(CN2CCN(c3ccc(C(=O)NS(=O)(=O)c4ccc(N[C@H](CCN5CCOCC5)CSc5ccccc5)c(S(=O)(=O)C(F)(F)F)c4)cc3)CC2)C1 [Navitoclax] (partner 0.5 µM)
A digest of the protocol:
as §1

Compound in assay [4]: Cc1ccc(Nc2nccc(N(C)c3ccc4c(C)n(C)nc4c3)n2)cc1S(N)(=O)=O [Pazopanib] + Nc1nc2[nH]cc(CCc3ccc(C(=O)N[C@@H](CCC(=O)O)C(=O)O)cc3)c2c(=O)[nH]1 [Pemetrexed] (partner 0.2 µM)
Put shortly:
as §1

For the cell line UMC-11, the relative viability in assay [1] (first compound 0.002 µM) is 1; in assay [1] (first compound 0.006325 µM) it was 1.05; in assay [1] (first compound 0.06325 µM), 1.17; in assay [1] (first compound 0.2 µM), 0.988; in assay [2] (first compound 0.01 µM) it was 0.552; in assay [2] (first compound 0.03162 µM), 0.732. For the same cell line, the relative viability worked out at 0.672 in assay [2] (first compound 0.1 µM); 0.756 in assay [2] (first compound 0.3162 µM); 0.846 in assay [2] (first compound 1 µM); 0.318 in assay [3] (first compound 0.01 µM); 0.312 in assay [3] (first compound 0.03162 µM); 0.303 in assay [3] (first compound 0.1 µM). In addition, the relative viability is 0.268 in assay [3] (first compound 0.3162 µM); 0.348 in assay [3] (first compound 1 µM); 0.743 in assay [4] (first compound 0.01 µM); 0.908 in assay [4] (first compound 0.03162 µM); 0.871 in assay [4] (first compound 0.1 µM); 0.701 in assay [4] (first compound 0.3162 µM). For the same cell line, in assay [4] (first compound 1 µM), the relative viability is 0.844.
